Results on eleven molecules are retold here after PMC10587869, “Deciphering Structural Determinants Distinguishing Active from Inactive Cell-Penetrating Peptides for Cytosolic mRNA Delivery” (Bioconjugate Chemistry, 2023).

Positions of bridges follow the written chain, without caps; N, C: chain ends. Non-standard residues stand in square brackets, D forms with d. Residues, ends and D or L forms follow the SMILES beside them. No end group written: not given here. *: point of attachment. Stearoyl = CCCCCCCCCCCCCCCCCC(=O)*; Orn = NCCC[C@H](N)C(=O)O

Data set [1] in a line: Heparin-mediated polyplex decomplexation assay (QuantiFluor RNA). Type of data set: physicochemical. The note with it: for stability of polyplexes against heparin-induced decomplexation: N/P 5, TE buffer pH 7.5, 37 °C 90 min, released mRNA by QuantiFluor RNA dye, Figure 7. The protocol:
For testing the stability of mRNA polyplexes, a polyanion decomplexation assay, mediated by the polyanionic heparin (heparin sodium salt from porcine intestinal mucosa, Cat. No. H3149-100 KU, Sigma-Aldrich) was performed. mRNA polyplexes were freshly prepared with uncapped SecNLuc mRNA (RIBOPRO), as described in the section mRNA Nanoparticle Formation. Following polyplex formation, all samples were incubated for at least 30 min at room temperature. Importantly, separate stock solutions of heparin were made to ensure an equal volume across conditions regardless of heparin concentration. For decomplexation, 5 μL of 10× polyplexes were diluted in RNase-free TE-buffer at pH 7.5 (Promega, Cat. No. E260A) supplemented with an equal volume of heparin across conditions to a total volume of 50 μL in a 384-well plate (Greiner Bio-One, Cat. No. 781101). All samples were quickly spun down before incubation at 37 °C for 90 min. The QuantiFluor RNA System (Promega, Cat. No. E3310) was used with a 1:2000 dilution of RNA-binding dye for all tested conditions to detect released mRNA. For quantification, a calibration curve with uncapped SecNLuc mRNA was made, spanning from 0.19 ng mRNA/well to 50 ng mRNA/well. For detection of released mRNA, the dye was excited at 485 nm, and emission was collected at 535 nm using the VICTOR X3Multilabel Plate Reader (PerkinElmer)
Data analysis was performed using GraphPad Prism (GraphPad Software, version 8.4.2, San Diego, CA, USA). Data are presented as means ± standard deviation (SD) unless stated otherwise. Means were calculated by first averaging the technical replicates, for which outliers were identified using Grubbs’ test, followed by averaging the biological replicates. Before statistical analysis, all data were checked for normal distribution with a Shapiro–Wilk test. Statistical analysis was done using one- or two-way analysis of variance (ANOVA). Multiple comparisons were corrected using Tukey’s test with 95% confidence intervals. For the mRNA standard curve used in heparin decomplexation assays, the coefficient of variation was determined both in the standards and in samples and was ≤20%. The standard curve was fitted using a sigmoidal four-parameter logistic curve. The standard curve was back fitted with ±10% accuracy to verify the correctness of the fit. The signals from samples were blanked with the appropriate solution (TE buffer) before calculating interpolations. p > 0.05 was considered not significant, and p values were reported using the GraphPad Prism style (*p ≤ 0.05, **p ≤ 0.01, ***p ≤ 0.001, and ****p ≤ 0.0001).

The test system of data set [2] is MC3T3 cells. Nature of the data set: Cellular uptake of Cy5-eGFP mRNA polyplexes, live-cell confocal microscopy. Type of data set: cell-based, murine. Particulars: for ratio of Poly hLF-x vs Mono-hLF-x, Corrected Total Cellular Fluorescence (Cy5): Cy5-eGFP mRNA polyplexes, 2 h post-transfection, n = 5 fields of view per condition; for effect of oligomerization on uptake: Cy5-labeled mRNA, polymerized vs monomeric, Figure 5, Figure S5. The protocol:
Peptide-mRNA polyplexes were formulated as previously described.[40],[41] In short, two separate stock solutions of mRNA and peptide were prepared in MQ and simultaneously dispensed with electronically dispensing pipettes (E4 Electronic Pipette, LTS E4-100XLS+, Mettler-Toledo Rainin, LLC, Oakland, CA, USA) at a flow rate of 11 mL min^–1. All polyplexes were formed at a concentration of at least 10-fold the final intended concentration for transfections.
(§1) One day before mRNA transfections, 10 000 MC3T3 cells in 100 μL were seeded in 96-well plates (Greiner Bio-One Cat. No. 655180) or 20 000 cells in 200 μL in μ-slide eight-well chambers (Ibidi, Gräfelfing, Germany). These seeding densities ensured confluency between ∼70 and 90% on the day of transfection. mRNA transfections were performed by removing the complete medium from the wells and replacing it with mRNA nanoparticles diluted 10 times in complete medium. Cells were exposed to mRNA nanoparticles for 2 h at 37 °C, 5% CO2, in a humidified incubator. For some experiments, cells were stained with 200 μL of 1 μM CellTrace yellow (Thermo Fisher Scientific, Cat. No. C34567) directly after the nanoparticle incubation, according to the manufacturer’s instructions. Regardless of the tested N/P ratio or type of nanoparticle, mRNA inputs were equalized across conditions, resulting in 107 ng/well for luciferase assays in 96-well plate formats and 214 ng/well for confocal microscopy experiments. […] For untreated controls, complete cell culture medium was added and refreshed as often as in the experimental conditions.
Before microscopy, complete medium containing phenol red was replaced with an equal volume of phenol red-free and HEPES-formulated Opti-MEM (Gibco). The uptake of Cy5-eGFP mRNA-formulated nanoparticles was assessed 2 h post-transfection, and eGFP expression was assessed 24 h post-transfection. Live-cell imaging was performed using a Leica TCS SP8 SMD (Leica Microsystems, Mannheim, Germany) with an HC PL APO CS2 63×/1.20 water objective and a temperature-controlled stage at 36.5 °C. eGFP was excited at 488 nm (emission: 500–550 nm). CellTrace yellow was excited at 555 nm (emission: 570–620 nm), and Cy5 was excited at 633 nm (emission: 650–690 nm). All laser lines were generated by a white-light laser, and emissions were detected with hybrid detectors. All channels were sequentially acquired to avoid crosstalk at a bit depth of 12. Except for the LMM eGFP conditions (reduced gain), equal acquisition settings (pixel size, pinhole, laser power, and gain) per fluorophore were used within the experiments.
Quantification of the Cy5 fluorescence was performed as previously described.[59],[60] In brief, five separate images (unless stated otherwise) containing approximately 10 cells per image were analyzed using ImageJ (version 1.53f51). A square mask of 184.52 μm^2 was used to quantify the raw integrated density (sum of all pixels in a region of interest). Importantly, cell confluencies ranged from ∼80–95%, ensuring minimal impact of cell density on total fluorescence values. The brightness and contrast of the images were adjusted to find a cell-free region to determine background fluorescence. Then, a circle was drawn to measure the background fluorescence. To obtain the corrected total cellular fluorescence (CTCF), the area (in pixels) was multiplied by the mean gray value of the background and subsequently subtracted from the raw integrated density.

Data set [3] relates to MC3T3 cells. Nature of the data set: Resazurin assay of metabolic activity after mRNA transfection. Type of data set: cell-based, murine. Further details: concentration or dose not given beside the values. Particulars: normalized to untreated. On the procedure: as §1
(§2) The resazurin-based assay was performed essentially as described previously.[61],[62] In brief, the effect of different peptide-mRNA complexes on the metabolic activity of cells was measured 24 h post-transfection. Resazurin sodium salt (Sigma-Aldrich, Cat No. R7017) was dissolved in PBS and diluted 100 times to a final concentration of 100 μg/mL in complete medium. After 2 h of incubation with cells at 37 °C, fluorescence was measured using the VICTOR X3Multilabel Plate Reader (PerkinElmer, Waltham, MA, USA). After briefly shaking the plate, resazurin was excited at 485 nm, and emission was collected from 570 to 620 nm. All samples were blanked by the average signal of cell-free wells. Blanked data were normalized to untreated conditions per cell type.

In the next data set the test system is HeLa cells. Described as above. It is filed as cell-based, human. Particulars: normalized to untreated. On the procedure: as §1, §2
The mark [4] stands for this setting: MC3T3, N/P 5, resazurin 24 h post-transfection.
The mark [5] stands for this setting: MC3T3, N/P 3, resazurin 24 h post-transfection.
The mark [6] stands for this setting: N/P 5, resazurin 24 h post-transfection.

For “OCFQWQONMOOVOGPPVSCIOO (disulfide) [poly-hLF-Orn, hLF-Orn oligomerized through intermolecular disulfide bonds]”, the “difference in heparin decomplexation” value in data set [1] (N/P 1 and 3, low or high heparin amounts, Figure S8) was “no difference”.

As for “OCFQWLONLOOVOALLVSCLOO (disulfide) [poly hLF-v3, polymeric hLF-v3]”, the “uptake of Cy5-labeled mRNA polyplexes of amphipathic hLF variants” value in the data set with MC3T3 cells [2] (2 h incubation, live-cell confocal microscopy, serum present, Figure 5, four independent experiments) is listed as “comparable to the one of PF14”. For the same molecule, in the data set with MC3T3 cells [3] (setting [4]), the relative metabolic activity is reported as roughly 125%.

Turning to `CC(C)C[C@@H]1NC(=O)[C@H](C)NC(=O)[C@H](CCCN)NC(=O)[C@H](C(C)C)NC(=O)[C@H](CCCN)NC(=O)[C@H](CCCN)NC(=O)[C@H](CC(C)C)NC(=O)[C@H](CC(N)=O)NC(=O)[C@H](CCCN)NC(=O)[C@H](CC(C)C)NC(=O)[C@H](Cc2c[nH]c3ccccc23)NC(=O)[C@H](CCC(N)=O)NC(=O)[C@H](Cc2ccccc2)NC(=O)[C@@H](NC(=O)[C@@H](N)CCCN)CSSC[C@@H](C(=O)N[C@@H](CC(C)C)C(=O)N[C@@H](CCCN)C(=O)N[C@@H](CCCN)C(N)=O)NC(=O)[C@H](CO)NC(=O)[C@H](C(C)C)NC(=O)[C@H](CC(C)C)NC1=O` [Mono-hLF-v3] (H-[Orn]CFQWL[Orn]NL[Orn][Orn]V[Orn]ALLVSCL[Orn][Orn]-NH2; disulfide 2-19), the relative metabolic activity in the data set on MC3T3 cells [3] (setting [5]) stood at 125%.

`CCCCCCCCCCCCCCCCCC(=O)N[C@@H](C)C(=O)NCC(=O)N[C@@H](Cc1ccc(O)cc1)C(=O)N[C@@H](CC(C)C)C(=O)N[C@@H](CC(C)C)C(=O)NCC(=O)N[C@@H](CCCCN)C(=O)N[C@@H](CC(C)C)C(=O)N[C@@H](CC(C)C)C(=O)N[C@@H](CCCN)C(=O)N[C@@H](CCCN)C(=O)N[C@@H](CC(C)C)C(=O)N[C@@H](C)C(=O)N[C@@H](C)C(=O)N[C@@H](C)C(=O)N[C@@H](C)C(=O)N[C@@H](CC(C)C)C(=O)N[C@@H](CCCN)C(=O)N[C@@H](CCCN)C(=O)N[C@@H](CC(C)C)C(=O)N[C@@H](CC(C)C)C(N)=O` [PF14, reference compound] (Stearoyl-AGYLLGKLL[Orn][Orn]LAAAAL[Orn][Orn]LL-NH2): the relative metabolic activity in the data set on MC3T3 cells [3] (setting [4]) worked out at 64%; in the data set on HeLa cells (N/P 3, resazurin 24 h post-transfection), 72%; in the data set with HeLa cells (setting [6]), 13%. The “stability against heparin decomplexation” value in data set [1] (N/P 7, low heparin dose, Figure S8) is “least stable”.

With “OCFQWQONMOOVOGPPVSCIOO [hLF-Orn, hLF analog with positively charged residues replaced by ornithines]”, in the data set on MC3T3 cells [2], the “ratio of Poly hLF-x vs Mono-hLF-x, Corrected Total Cellular Fluorescence (Cy5)” value was 1.19 x.

With “OCFQWQHNMOHVHGPPVSCIOH [hLF-His&Orn, hLF analog with positively charged residues replaced by histidines and ornithines]”, the “ratio of Poly hLF-x vs Mono-hLF-x, Corrected Total Cellular Fluorescence (Cy5)” value in the data set on MC3T3 cells [2] was determined as 2.42 x.

On to `CC[C@H](C)[C@H](NC(=O)[C@@H]1CSSC[C@H](NC(=O)[C@H](CCCCN)NC(C)=O)C(=O)N[C@@H](Cc2ccccc2)C(=O)N[C@@H](CCC(N)=O)C(=O)N[C@@H](Cc2c[nH]c3ccccc23)C(=O)N[C@@H](CCC(N)=O)C(=O)N[C@@H](CCCNC(=N)N)C(=O)N[C@@H](CC(N)=O)C(=O)N[C@@H](CCSC)C(=O)N[C@@H](CCCNC(=N)N)C(=O)N[C@@H](CCCCN)C(=O)N[C@@H](C(C)C)C(=O)N[C@@H](CCCNC(=N)N)C(=O)NCC(=O)N2CCC[C@H]2C(=O)N2CCC[C@H]2C(=O)N[C@@H](C(C)C)C(=O)N[C@@H](CO)C(=O)N1)C(=O)N[C@@H](CCCCN)C(=O)N[C@@H](CCCNC(=N)N)C(N)=O` [Mono-hLF-WT] (Ac-KCFQWQRNMRKVRGPPVSCIKR-NH2; disulfide 2-19), for which the relative metabolic activity in the data set on MC3T3 cells [3] (setting [5]) is 125%; in the data set with HeLa cells (setting [6]) it was 83%. For the same molecule, the “stability of polyplexes against heparin-induced decomplexation” value in data set [1] is recorded as “significantly lower stability of these polyplexes compared to PF14, except for the highest heparin dose”.

Regarding “KCFQWQRNMRKVRGPPVSCIKR (disulfide 2-19 (inferred)) [Poly hLF-WT, hLF-WT oligomerized through intermolecular disulfide bonds]”, in data set [1], the “stability of polyplexes against heparin-induced decomplexation” value was “significantly lower release of mRNA”.

Take `CC(C)C[C@@H]1NC(=O)[C@H](C)NC(=O)[C@H](CCCCN)NC(=O)[C@H](C(C)C)NC(=O)[C@H](CCCCN)NC(=O)[C@H](CCCCN)NC(=O)[C@H](CC(C)C)NC(=O)[C@H](CC(N)=O)NC(=O)[C@H](CCCCN)NC(=O)[C@H](CC(C)C)NC(=O)[C@H](Cc2c[nH]c3ccccc23)NC(=O)[C@H](CCC(N)=O)NC(=O)[C@H](Cc2ccccc2)NC(=O)[C@@H](NC(=O)[C@@H](N)CCCCN)CSSC[C@@H](C(=O)N[C@@H](CC(C)C)C(=O)N[C@@H](CCCCN)C(=O)N[C@@H](CCCCN)C(N)=O)NC(=O)[C@H](CO)NC(=O)[C@H](C(C)C)NC(=O)[C@H](CC(C)C)NC1=O` [mono-hLF-v2] (H-KCFQWLKNLKKVKALLVSCLKK-NH2; disulfide 2-19): in the data set on MC3T3 cells [3] (setting [4]), the relative metabolic activity was roughly 125%.

Consider “KCFQWLKNLKKVKALLVSCLKK [hLF-v2, lysine-substituted amphipathic hLF variant]”, for which the “effect of oligomerization on uptake” value in the data set on MC3T3 cells [2] (2 h incubation) is “pronounced increase in uptake”.

Turning to “OCFQWLONLOOVOALLVSCLOO [hLF-v3, ornithine-substituted amphipathic hLF variant]”, the “effect of oligomerization on uptake” value in the data set with MC3T3 cells [2] (2 h incubation) is reported as “pronounced increase in uptake”.
